Starred links: 1 amine or outer side, 2 acyl side, 3 side chain; linkers in the order of their positions; H or OH if unused. Positions of bridges follow the written chain, without caps; N, C: chain ends. Non-standard residues stand in square brackets, D forms with d. Residues, ends and D or L forms follow the SMILES beside them. Chains are numbered I, II in the order given. Actinocin(9to1) = Cc1c2oc3c(C)ccc(C(=O)[*:1])c3nc-2c(C(=O)[*:2])c(N)c1=O; NMeV = CN[C@H](C(=O)O)C(C)C; Sar = CNCC(=O)O
Key:
Settings in all cases: Actinomycin D 25 microg/ml
[1] = tested on: neu (c-erbB2) reporter (N2 cells); test: Luciferase signal half-life after Actinomycin D, N2 cells; assay type: cell-based, human
Excerpt: (§1) 75 micrograms of the pNEU106 plasmid was linearized by a single restriction endonuclease cleavage within the vector backbone and electroporated into HTB30 human breast carcinoma cells. Neomycin resistant clones were isolated and tested for luciferase activity. Clones testing positive for luciferase production were subjected to Southern blot analysis (see below). The best clone (producing the highest signal and carrying a single intact copy of the transfected DNA) was utilized for high throughput screening (designated clone N2).
(§2) When screening for inhibitors rather than inducers of transcription, the half-life of the reporter molecule becomes a crucial parameter in determining the minimal incubation time that would be necessary to allow enough decay of reporter molecules so that the inhibition of their synthesis became visible. […] This experiment measured the combined half-life of luciferase mRNA and of the luciferase protein and compares the rate of signal decay of the CMV reporter to three other well characterized genes; H-ras, K-ras and c-erbB2.
(§3) Cells derived from clones CM1 (CMV), K2 (K-ras), H21 (H-ras) and N2 (c-erbB2) were seeded into 96-well microtiter plates and incubated overnight. […] At the times indicated in FIG. 22, cells were washed with PBS and luciferase activity of Actinomycin-treated cells determined as described in Materials and Methods. […]

[2] = tested on: H-ras reporter (H21 cells); test: Luciferase signal half-life after Actinomycin D, H21 cells; assay type: cell-based
Description: When screening for inhibitors rather than inducers of transcription, the half-life of the reporter molecule becomes a crucial parameter in determining the minimal incubation time that would be necessary to allow enough decay of reporter molecules so that the inhibition of their synthesis became visible. The CMV reporter cell line was therefore tested for the time dependency of luciferase activity after treatment of the cells with Actinomycin D, an inhibitor of transcription. This experiment measured the combined half-life of luciferase mRNA and of the luciferase protein and compares the rate of signal decay of the CMV reporter to three other well characterized genes; H-ras, K-ras and c-erbB2.
Cells derived from clones CM1 (CMV), K2 (K-ras), H21 (H-ras) and N2 (c-erbB2) were seeded into 96-well microtiter plates and incubated overnight. At time 0, Actinomycin D (25 microg/ml) was added. At the times indicated in FIG. 22, cells were washed with PBS and luciferase activity of Actinomycin-treated cells determined as described in Materials and Methods. The signal from the treated cells was compared to the luciferase activity of untreated controls.

CMV reporter (CM1 cells) = test: Luciferase signal half-life after Actinomycin D, CM1 cells; assay type: cell-based, human
Excerpt: Hep3B hepatocellular carcinoma cells were transfected by electroporation with 75 micrograms of pCM106 which had been linearized by a single ScaI cut within the vector backbone. Neomycin resistant colonies were isolated and tested for luciferase activity. Luciferase positive, neomycin resistant clones were subjected to Southern blot analysis (see below). The best clone, producing the most luciferase activity from a single, correctly integrated vector was selected for use as the CMV reporter cell line in the high throughput screen (this clone was designated CM1).
as §2, §3

[3] = tested on: K-ras reporter (K2 cells); test: Luciferase signal half-life after Actinomycin D, K2 cells; assay type: cell-based, human
Excerpt: as §1, with “pKRAS106” for “pNEU106”, “SW480” for “HTB30”, “colon” for “breast”, “K2).” for “N2).”
as §2, §3

Cc1c2oc3c(C)ccc(C(=O)N[C@@H]4C(=O)N[C@H](C(C)C)C(=O)N5CCC[C@H]5C(=O)N(C)CC(=O)N(C)[C@@H](C(C)C)C(=O)O[C@@H]4C)c3nc-2c(C(=O)N[C@@H]2C(=O)N[C@H](C(C)C)C(=O)N3CCC[C@H]3C(=O)N(C)CC(=O)N(C)[C@@H](C(C)C)C(=O)O[C@@H]2C)c(N)c1=O [Actinomycin D] (I: T[dV]P[Sar][NMeV] / II: T[dV]P[Sar][NMeV]; ester I:1-I:C, II:1-II:C; linker I:N-II:N via Actinocin(9to1))
Signal Halflife [1]: 3 h
Signal Halflife [2]: 10 h
Signal Halflife (CMV reporter (CM1 cells)): 6.5 h
Signal Halflife [3]: 6.5 h
